Values of other authors in article PMC10816276 (International Journal of Molecular Sciences, 2024).

Biological target: T1, Mushroom tyrosinase (mTyr) (Agaricus bisporus, UniProt C7FF04)
T1 construct: purchased Sigma-Aldrich
Details: substrate L-DOPA; cited from earlier work

T1 sequence (C7FF04 1-392): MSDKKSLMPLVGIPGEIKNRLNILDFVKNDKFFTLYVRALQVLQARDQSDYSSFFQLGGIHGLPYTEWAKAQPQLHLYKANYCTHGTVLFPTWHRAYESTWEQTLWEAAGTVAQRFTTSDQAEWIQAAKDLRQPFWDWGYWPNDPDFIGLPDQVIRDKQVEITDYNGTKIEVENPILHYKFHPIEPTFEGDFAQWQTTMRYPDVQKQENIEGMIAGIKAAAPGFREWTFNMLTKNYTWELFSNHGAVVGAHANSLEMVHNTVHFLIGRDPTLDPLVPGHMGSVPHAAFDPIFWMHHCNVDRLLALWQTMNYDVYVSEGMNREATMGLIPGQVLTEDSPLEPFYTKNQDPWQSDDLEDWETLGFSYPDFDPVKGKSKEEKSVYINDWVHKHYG

With OC[C@H]1O[C@@H](Oc2ccc(O)cc2)[C@H](O)[C@@H](O)[C@@H]1O [beta-arbutin, reference compound] as the molecule, how does the “inhibitory effect on the diphenolase activity of mTyr” value read?
Its value is “no inhibitory effect”.
